Measurements: a melting point compilation (Tetko et al.; mined from patent text by program, amines drawn as free bases though some values may be those of a salt)

Row | Compound | melting point [°C]
1 | CC(C)CCOc1c(-c2ccc(S(N)(=O)=O)cc2)cnn(-c2ccc(F)c(F)c2)c1=O | 149 to 151
2 | CNN(NC)C(=O)Nc1cccc2c1C(=O)c1c-2n[nH]c1-c1ccc(OC)cc1 | > 300
3 | CCOC(=O)Cc1cn(-c2ncnc3ccccc23)c2ccccc12 | 65 to 67
4 | CC(=O)N1CS(=O)c2c1cc(C)cc2[N+](=O)[O-] (configuration not stated) | 141
5 | COc1cccc2c1C(O)c1ccccc1C21CCN(C)CC1 (configuration not stated) | 149 to 151
6 | COc1cc(Cl)c([N+](=O)[O-])cc1OC | 103 to 105
7 | Cc1cc(SCc2cccc(C(F)(F)F)c2)c(C)cc1N | 58 to 60
8 | COC(=O)c1cc(CCC2CNc3nc(NC(=O)C(C)(C)C)nc(O)c3C2)c[nH]1 (configuration not stated) | 236 to 238
9 | CSC(=N[N+](=O)[O-])N(C)C(C)=O | 40 to 41
10 | O=CC1c2ccccc2C(C=O)c2ccccc21 (configuration not stated) | 132 to 135
11 | O=c1ccccn1C1=CC(CF)(CF)Oc2ccc(C(F)(F)F)cc21 | 139 to 140
12 | CCCCCc1c(C(C)C)nc(C(C)C)c(CO)c1-c1ccc(F)c(C(O)c2ccc(F)cc2)c1 (configuration not stated) | 118 to 120
13 | Cc1cc2c(cc1C1=NNC(=O)CC1)N(C)C(=O)CO2 | 227 to 228
14 | CCc1ccccc1NC(Nc1ccccc1CC)Nc1ccccc1CC | 76 to 78
15 | CNC(=O)c1ccsc1Nc1nc(Nc2ccc3c(c2)CCN(CCOC)CC3)ncc1Cl | 217 to 221
16 | CCCCCCCCCCc1ccc(CCC(N)(CO)CCO)cc1 (configuration not stated) | 69 to 72
17 | CCc1cccc(C)c1NC(=O)C(C)N (configuration not stated) | 68.5 to 70
18 | CC(C)(C)OC(=O)CN1C(=O)[C@@H](N)[C@H](c2ccccc2)Sc2ccccc21 (relative stereo) | 172 to 174
19 | COc1ccc2c(c1)c(C1CCN(Cc3cccc(C(=O)O)c3)CC1)cn2CCc1ccsc1 | 217 to 218
20 | CN1C2CCC1CC(O)(c1ccccc1)C2 (configuration not stated) | 157 to 159
21 | CCCn1c(=O)c2c(nc(/C=C/c3ccccc3)n2C)n(CCC)c1=O | 163
22 | CC1(c2ccccc2)CN(C(=O)Nc2ccc(Cl)cc2)N=C1c1ccc(Cl)cc1 (configuration not stated) | 151 to 158
23 | C1=CCC23C=CC=CN2c2nccn2C3=C1 (configuration not stated) | 258 to 260
24 | COc1cc(N)c2nccc(C)c2c1Oc1ccc(Cl)cc1Cl | 115 to 118
25 | CC1(C)CCC2(Cc3ccc(Cl)cc3)OC2C1=O (configuration not stated) | 69 to 70
26 | CN(C)C(=O)Nc1ccc(Oc2ccc(Cl)nn2)cc1 | 173 to 174

Row | Compound | melting point [°C]
27 | COc1cc(C(=O)O)ccc1Cc1cn(C(C)C(=O)N(C)C)c2ccc(C(=O)NCC3CCCC3)cc12 (configuration not stated) | 146 to 147
28 | COc1ccc(C(=O)N2CC(O)CC2C(=O)O)cc1 (configuration not stated) | 192
29 | CN(C(=O)N1Cc2ncn(Cc3ccccc3)c2CC1C(=O)O)c1ccccc1 (configuration not stated) | 220 to 222
30 | CSc1nnc(-c2ccc(C)cc2)c(-c2ccc(C)cc2)n1 | 170 to 172
31 | COc1ccc(NC(C)=O)cc1OCCCN1CCC(c2nsc3cc(F)ccc23)CC1 | 109 to 111
32 | O=C(CCN1C(=O)CSC1=S)Nc1ccccc1O | 168 to 170
33 | COCCCn1nnnc1-c1cc(-c2cc(C(C)C)ccc2OC)c(O)cc1O | 174 to 176
34 | CC(CCC(=O)O)C1CCC2C3=CC=C4C(C)(C)C(O)CCC4(C)C3CCC21C (configuration not stated) | 210 to 213
35 | CC(C)(C)OC(=O)NC1(CCO)CC1 | 93 to 95
36 | CC(=O)c1ccc(Cl)c(S(=O)(=O)N(C)C)c1 | 108
37 | O=C(NNS(=O)(=O)c1ccccc1)c1ccccc1Br | 154 to 156
38 | COc1ccc(C2(O)C=CNC(=O)N2)cc1OC1CC2CCC1C2 (configuration not stated) | 167 to 169
39 | Cc1ccc([C@@H](C)NCc2ccc(O)cc2)cc1 | 114 to 116
40 | O=C(O)CCCCc1ccc(CCNS(=O)(=O)c2ccc(Cl)cc2)cc1 | 118 to 120
41 | Cc1ccccc1Oc1cc(Cl)ccc1C(=O)O | 158 to 159
42 | O=C1C(c2ccccc2)=C(c2ccccc2)C(=O)N1CCc1ccccc1F | 111 to 112
43 | O=C1C=CC(=O)c2ncccc21 | 110
44 | Cc1cc2oc(=O)c3c(c2cc1[N+](=O)[O-])CCN(CCN1CC2CCC(CC2)C1)C3 | 187 to 188
45 | CC(C)(C)OC(=O)c1ncn2c1[C@@H]1CCCN1C(=O)c1c-2ccc(F)c1Cl | 211 to 212
46 | NCC(O)COc1cccc2ccccc12 (configuration not stated) | 106
47 | NC(=O)N1C(=O)C(=C(OCOC(=O)COCC(=O)OCc2ccccc2)c2cccs2)c2cc(F)c(Cl)cc21 | 122
48 | CCCC12CCC(=O)C=C1c1c(cc(OCC(=O)O)c(Cl)c1Cl)C2O (configuration not stated) | 206 to 208
49 | Nc1nc(Cl)c(N)c(NCCCCO)n1 | 110 to 111
50 | O=CN[C@H]1CC[C@H](CCN2CCC(c3cccc4c3CCO4)CC2)CC1 | 142
51 | CCCCC(C(=O)NO)S(=O)(=O)c1ccc(OC)cc1 (configuration not stated) | 130
52 | CCCCNC(=O)C(=O)NCCCCCO | 136 to 137

Row | Compound | melting point [°C]
53 | CCN1CCCC1CNC(=O)c1cccc(NC(=O)N2CCc3cc(SC)c(C(F)(F)F)cc32)c1 (configuration not stated) | 174 to 175
54 | CCc1c(C)c(=O)n(-c2cc(OC(C)C)c(Cl)cc2F)c(=O)n1C | 88 to 91
55 | CCOc1c(NC(C)(C)C)c(=O)c1=O | 80 to 82
56 | CC(C(=O)O)c1ccc2c(c1)Cc1cc([N+](=O)[O-])ccc1-2 (configuration not stated) | 206 to 209
57 | COC(=O)c1nc(-c2ccc(Cl)c(N(C)C)c2F)nc(N)c1C1CC1 | 156 to 158
58 | CCNC(=O)c1ccccc1Nc1nc(Nc2cc3c(cc2OC)CC(=O)N(CC)CC3)ncc1Cl | 244 to 251
59 | CC(C)(C)OC(=O)NC1CCCCCC=CC2CC2(C(=O)NS(=O)(=O)C2CC2)NC(=O)C2CC(OC(=O)c3ccccn3)CN2C1=O (configuration not stated) | 164 to 166
60 | O=C(Nc1cccc(F)c1)c1ccccc1O | 157 to 159
61 | Cc1cccc(-c2nc(-c3ccc(S(C)(=O)=O)cc3)sc2-c2ccnc(Sc3ccccc3)c2)c1 | 116 to 118
62 | O=C(O)CCc1[nH]nc2c1CCCC2 | 135 to 136
63 | COC(=O)c1[nH]c2c(C)ccc(C)c2c1S(C)=O (configuration not stated) | 127
64 | CC(N)C(=O)N1CC(=O)N(CC(N)=O)C1(C)C (configuration not stated) | 196 to 197
65 | CCOC(=O)C(C)(C)n1c(=O)[nH]c2ccc([N+](=O)[O-])cc2c1=O | 184 to 185
66 | CN(C(=O)c1ccc(Cl)c(Cl)c1)C1CCN(C)C12CCCCC2 (configuration not stated) | 138 to 140
67 | CS(=O)(=O)Nc1cc2c(cc1Oc1ccccc1)C(=O)C(Sc1ccccc1)(Sc1ccccc1)C2 | 162
68 | O=CC1=C(Cl)Nc2cc(F)c(F)cc2C1 | 260
69 | NC(=O)C(=O)NC(C(=O)OC(c1ccccc1)c1ccccc1)c1ccco1 (configuration not stated) | 168 to 170
70 | COc1cc(C)c(C(=O)c2c(OC)ncc(Cl)c2C)c(OC)c1OC | 92 to 94
71 | O=c1c([N+](=O)[O-])c[nH]n1-c1c(Cl)cc(C(F)(F)F)cc1Cl | 100 to 108
72 | O=C(O)c1ccc(-c2ccc(I)c(O)c2)cc1 | 174
73 | COC1=C(OC)C(=O)C(N=[N+]=[N-])=C(C)C1=O | 48 to 50
74 | CC(=O)Nc1cc2c(cc1Oc1ccc(F)cc1F)C(=O)CC2c1ccccc1 (configuration not stated) | 163
75 | CC(C)(C)n1nnc(Cc2ccc(C(=O)O)cc2)n1 | 139 to 140
76 | CCCCOC(=O)[C@H](Cc1ccc(O)cc1)NC(=O)C1(NC(=O)[C@@H](S)C(C)C)CCCC1 | 182 to 183
77 | CCCC(=O)Oc1ccc2sc(S(N)(=O)=O)nc2c1 | 132
78 | CCOC(=O)c1cn(CC)c2nc(N3CCNCC3)ncc2c1=O | 155

Row | Compound | melting point [°C]
79 | N#Cc1ccc2c(c1)NC(=O)C(O)C2 (configuration not stated) | > 250
80 | c1csc(-c2ccc(C34CCN(CC3)C4)cn2)n1 | 127 to 129
81 | NC1=NC2(O)c3cc([N+](=O)[O-])ccc3CC2S1 (configuration not stated) | > 250
82 | CCCc1[nH]c2ccc(OC)cc2c1C=O | 166 to 168
83 | O=C(O)C1=CCc2ccccc21 | 157
84 | CCOC(=O)c1cn(-c2nnc(C)s2)c2nc(Cl)c(F)cc2c1=O | 159 to 162
85 | COc1ccnc(Cc2cnc(NCCSCc3nc[nH]c3C)[nH]c2=O)c1 | 128 to 130
86 | CCOc1c(C(=O)O)sc2ccc(OC)cc12 | 162 to 164
87 | Cc1nc(SCc2ccncc2C(=O)O)sc1CC(=O)O | 178 to 180
88 | CCSC(=O)CCS(=O)(=O)CC | 35 to 36
89 | C#CCn1nc(-c2ccc(Cl)cc2)n(CC)c1=O | 115 to 119
90 | Cc1cc(=O)c2ccccc2s1 | 70
91 | CC1CN(c2c(F)cc3c(=O)c(C(=O)O)cn(C4CC4)c3c2Cl)CC1N (configuration not stated) | 231 to 234
92 | CN1C(=O)C(c2ccc(OC(F)F)cc2)(c2cccc(C#CCCO)c2)N=C1N (configuration not stated) | 90 to 93
93 | CN=C(NS(=O)(=O)N1CCC(F)(F)CC1)N1CC(c2ccccc2)C(c2ccc(Cl)cc2)=N1 (configuration not stated) | 158 to 160
94 | CC(Nc1c(Nc2ccc(S(N)(=O)=O)cc2)c(=O)c1=O)C(C)(C)C (configuration not stated) | 233 to 235
95 | CNC(=O)n1nc(Oc2c(Cl)cc(C(F)(F)F)cc2Cl)cc1C | 113 to 114
96 | CONC(=O)Nc1ccc(-c2sc3c(c2CN(C)C(C)c2ccccc2)c(=O)n(-c2ccccc2)c(=O)n3Cc2c(F)cccc2F)cc1 (configuration not stated) | 191 to 192
97 | CCOC(=O)Cc1ccc(NC(=O)C(COc2cccc(Cl)c2)NS(=O)(=O)c2ccc(F)cc2)cc1 (racemic) | 164 to 165
98 | CC(=O)c1ccc2cc(O)ccc2c1O | 195 to 200
99 | Cc1nnc2n1-c1sc(CCc3ccc(CC(C)C)cc3)cc1C(c1ccccc1Cl)=NC2C (configuration not stated) | 130 to 132
100 | CCOC(=O)C1=C(N2CCCC2)N=C(C)C(C(=O)OCC)C1c1ccccc1 (configuration not stated) | 57
101 | O=C1Nc2ccccc2C12COc1c(Cl)cc3c(c12)OCCO3 (configuration not stated) | 255 to 257
102 | O=[N+]([O-])c1n[nH]c(-c2ccc(C(F)F)c(C(SC(c3cc(-c4nc([N+](=O)[O-])n[nH]4)ccc3C(F)F)C(F)(F)F)C(F)(F)F)c2)n1 (configuration not stated) | 74 to 76
